“And” between values parts separate entries of the source, which are not always exact repeats. Equal entries are not always repeated.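 A five-concentration, 48-hour dose response in 96-well plates underlies each endpoint, interpolated linearly between surrounding concentrations. Abbreviation: GI50, concentration required for 50% inhibition of growth. TGI marks complete inhibition of growth.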
Tests used:
Experiment in all cases: DTP human tumour cell line panel, 48 h
SK-MEL-2 melanoma = tested on: SK-MEL-2 melanoma
HOP-62 NSCLC = tested on: HOP-62 NSCLC
HCT-15 colon = tested on: HCT-15 colon
DU-145 prostate = tested on: DU-145 prostate
T-47D breast = tested on: T-47D breast
OVCAR-4 ovarian = tested on: OVCAR-4 ovarian
LOX IMVI melanoma = tested on: LOX IMVI melanoma
SK-OV-3 ovarian = tested on: SK-OV-3 ovarian
A498 renal = tested on: A498 renal
UACC-257 melanoma = tested on: UACC-257 melanoma

SMILES	GI50 (SK-MEL-2 melanoma)	TGI (SK-MEL-2 melanoma)	GI50 (HOP-62 NSCLC)	TGI (HOP-62 NSCLC)	GI50 (HCT-15 colon)	TGI (HCT-15 colon)	GI50 (DU-145 prostate)	TGI (DU-145 prostate)	GI50 (T-47D breast)	TGI (T-47D breast)	GI50 (OVCAR-4 ovarian)	TGI (OVCAR-4 ovarian)	GI50 (LOX IMVI melanoma)	TGI (LOX IMVI melanoma)	GI50 (SK-OV-3 ovarian)	TGI (SK-OV-3 ovarian)	GI50 (A498 renal)	TGI (A498 renal)	TGI (UACC-257 melanoma)	GI50 (UACC-257 melanoma)
C[C@H](NC(=O)CCC(F)(F)F)C(=O)N[C@@H]1C(=O)N(CCO)c2ncccc2-c2ccccc21	> 100 µM	> 100 µM	> 100 µM	> 100 µM	> 100 µM	> 100 µM	> 100 µM	> 100 µM	> 100 µM	> 100 µM	> 100 µM	> 100 µM	> 100 µM	> 100 µM	> 100 µM	> 100 µM	> 100 µM	> 100 µM	–	–
COc1ccc(-n2nc(C)c3c2N(C)C2(C)C[C@@H]4C3(C)[C@@H]3CC4(C2)N(C)c2c(c(C)nn2-c2ccc(OC)cc2)[C@H]3C)cc1 (stereo not given in full)	7.29 µM	23.3 µM	3.1 µM	10.5 µM	–	–	23 µM	> 100 µM	2.44 µM	81.9 µM	5.95 µM	> 100 µM	–	–	2.53 µM	9.54 µM	3.95 µM	26.9 µM	–	–
O=C1c2ccccc2C(=O)c2c1ccc1c3ccccc3n(Cc3ccccc3)c21	–	> 100 µM	–	> 100 µM	–	> 100 µM	–	–	–	–	–	> 100 µM	–	> 100 µM	–	> 100 µM	–	–	–	–
O=C(OCc1nc2ccc(Br)cc2c(=O)n1-c1ccccc1)c1ccccc1O	–	> 100 µM	–	> 100 µM	–	–	–	–	–	–	–	> 100 µM	–	> 100 µM	–	> 100 µM	–	> 100 µM	> 100 µM	–
Cc1[nH]c(=O)nc(N/N=C/c2ccc(O)cc2)c1C(=O)Nc1ccc(Cl)cc1	–	> 100 µM	–	> 100 µM	–	> 100 µM	–	–	–	–	–	> 100 µM	–	–	–	> 100 µM	–	> 100 µM	> 100 µM	–
Cn1cc(-c2nn3cc(-c4cccs4)nc3s2)c2cc(F)ccc21	1.59 µM	7.29 µM	1.92 µM	23.1 µM	0.606 µM	> 100 µM	3.67 µM	31.6 µM	–	–	5.77 µM	> 100 µM	–	–	3.47 µM	70.9 µM	4.09 µM	50 µM	> 100 µM	7.9 µM
COc1ccccc1NC(=O)C(=O)C1C(=O)Nc2ccccc2S1=O (stereo not given)	–	> 100 µM	–	> 100 µM	–	> 100 µM	–	–	–	–	–	> 100 µM	–	> 100 µM	–	> 100 µM	–	> 100 µM	> 100 µM	–
COC(=O)C1CCC(=NC2c3ccccc3-c3ccccc32)N1 (stereo not given)	–	> 100 µM	–	> 100 µM	–	> 100 µM	–	–	–	–	–	> 100 µM	–	–	–	> 100 µM	–	> 100 µM	> 100 µM	–
COc1cc2c(c(OC)c1OC)-c1ccc(SC)c(=O)cc1[C@@H](NC(=O)c1ccc(C#N)cc1)CC2	–	6.58 µM	–	56.4 µM	–	> 100 µM	–	–	–	–	–	> 100 µM	–	36.7 µM	–	–	–	–	> 100 µM	–
O=C(Nc1ccccc1)Nc1ccccc1CNc1nc(Nc2ccc(OCCN3CCCC3)cc2)ncc1Cl	4.74 µM	13.5 µM	6.96 µM	21.8 µM	2 µM	8.31 µM	5.55 µM	12.4 µM	2.75 µM	20.8 µM	1.81 µM	7.84 µM	1.02 µM	2.11 µM	–	–	1.51 µM	8.54 µM	18.3 µM	7.22 µM
COc1ccc(N(Cc2cc(OC)c(OC)c(OC)c2)C2OC(=O)c3ccccc32)cc1 (stereo not given)	–	–	0.783 µM	> 100 µM	0.424 µM	> 100 µM	0.886 µM	54.3 µM	78 µM	> 100 µM	5.95 µM	> 100 µM	0.712 µM	> 100 µM	1.23 µM	> 100 µM	0.249 µM	1.61 µM	–	–
O=c1c2cc(F)ccc2sc2c(NCCCN3CCCC3)nc3ccccc3c12	2.19 µM	4.77 µM	–	–	1.82 µM	3.53 µM	2.07 µM	3.94 µM	3.89 µM	23.8 µM	2.01 µM	4.61 µM	1.73 µM	3.28 µM	2.35 µM	7.79 µM	1.74 µM	7.65 µM	3.98 µM	1.97 µM
CC[C@@]1(O)C(=O)OCc2c1cc1n(c2=O)Cc2cc3c(NC(C)=O)c(O)ccc3nc2-1	17.8 µM	53.5 µM	0.214 µM	0.631 µM	18 µM	> 100 µM	–	–	–	–	14.6 µM	44.7 µM	0.497 µM	6.31 µM	1.4 µM	45.7 µM	5.9 µM	22.5 µM	> 86.6 µM	10.8 µM
CC(=O)Nc1ccc(-n2cnc3cc(-c4ccc(OCCN5CCCCC5)cc4)ccc32)cc1	5.81 µM	11.5 µM	5.08 µM	11.6 µM	1.54 µM	6.38 µM	10.2 µM	> 33.3 µM	6.34 µM	17.2 µM	4.85 µM	11.7 µM	4.5 µM	8.88 µM	6.2 µM	12.2 µM	–	–	12 µM	5.9 µM
CCC1NCC(=O)c2c1[nH]c1ccccc21 (stereo not given)	–	> 100 µM	–	–	–	> 100 µM	–	–	–	–	–	> 100 µM	–	> 100 µM	–	> 100 µM	–	> 100 µM	> 100 µM	–
CCCCCCCCCCCCCCCC(=O)N[C@H]1CCc2cc(OC)c(OC)c(OC)c2-c2ccc(SC)c(=O)cc21	–	4.46 µM	2.13 µM	62.6 µM and 18.2 µM	1.54 µM	5.01 µM and 4.04 µM	–	–	–	–	8.65 µM	80 µM and > 100 µM	–	11.9 µM	–	6.19 µM	2.27 µM	3.64 µM and 5.35 µM	13.1 µM and 26.4 µM	0.699 µM
CCCCCCCCC(=O)NCCCNCCCNC(=O)CCCCCCCC	–	9.05 µM	–	27.9 µM	–	28.2 µM	–	–	–	–	–	29.9 µM	–	3.19 µM	–	29.2 µM	–	32.1 µM	19.9 µM	–
Clc1ccccc1C1=NN(c2ccccc2)C2c3cc(Br)ccc3OCC12 (stereo not given)	–	> 100 µM	–	> 100 µM	–	–	–	–	–	–	–	–	–	–	–	> 100 µM	–	> 100 µM	> 100 µM	–
N#CC(=C=[N-])[n+]1ccc(Cl)cc1	–	–	–	83 µM	–	28.6 µM	–	–	–	–	–	39.8 µM	–	26.2 µM	–	> 100 µM	–	86.6 µM	29.5 µM	–

From PubChem BioAssay (NCI)
